Experimental data taken from patent US20250109140A1, “5-[5-(PIPERIDIN-4-YL)THIENO[3,2-C]PYRAZOL-2-YL]INDAZOLE DERIVATIVES AND RELATED COMPOUNDS AS MODULATORS FOR SPLICING NUCLEIC ACIDS AND FOR THE TREATMENT OF PROLIFERATIVE DISEASES” (REMIX THERAPUTICS INC., priority 2022, published 2025).
Where two headings read alike, the source gives them in different places.

Key:
HTT mRNA = assay: Splicing RT-qPCR assay, HTT canonical (CJ) and alternative (AJ) junction mRNA; type: cell-based; details: Homo sapiens; for EC50: AC50 = 50% response in AJ mRNA increase
How it was run: (§1)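 Readout is RT-qPCR of CJ and AJ mRNA in lysates from A673 or K562 cells given an 11-point titration (top dose 10 uM final, DMSO at most 0.25%) for 24 hours. Data were normalized to GAPDH, GUSB or PPIA, then to DMSO.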

Target C mRNA = assay: Splicing RT-qPCR gene panel, Target C canonical junction (CJ) mRNA; type: cell-based; details: Homo sapiens; Table 8; larger gene panel, decrease in CJ mRNA levels
How it was run: as §1

HiBiT-tagged MYB protein = assay: HiBiT protein abundance assay, MYB (K562 HiBiT knock-in cells); type: cell-based, human; details: 24 hours treatment
Protocol: (§2) Compounds described herein were used to screen for effects on quantitative protein abundance using a HiBit assay system (Promega). Quantitative protein abundance was determined by measuring the protein levels of HiBit-tagged protein targets expressed in cell culture via luminescence using the Nano-Glo HiBiT Lytic Detection System, which uses a split complementation assay format to reconstitute NanoBiT enzyme to generate a luminescent signal. A protein abundance assay was developed such that endogenous protein targets could be modified with the HiBiT peptide tag and their abundance could be assessed after compound treatment. Briefly, K562 cell lines containing a HiBiT-modification were treated with various compounds described herein (e.g., compounds of Formulas (I), or (II)). After treatment for 24 hours, the protein abundance of a specific target was determined by measuring luminescence.
(§3) Cells were maintained in IMDM with 10% FBS. Before the assay, cells were diluted with […] growth media (IMDM+[…] media) and were seeded in a 384-well plate at a density of 10000 cells/well (for each cell line listed in Table 6). Each compound was prepared as a 10-point 3-fold serial dilution in DMSO with the top dose at a final concentration of […] in the well. Unmodified K562 cells were added at the previously specified density with DMSO to serve as an assay baseline and positive control (PC) and DMSO only with the respective modified cell lines was added to the negative control (NC) columns. Final DMSO concentration was kept at or below 0.25%. Treated cell plates were placed in an incubator at 37° C. with […] for 24 hours. After 24 hours, 25 μL of Complete HiflitLytic reagent was added to each well at room temperature (e.g. one plate requiring 10 mL Lytic Buffer, 100 μL LgBiT Protein, 200 μL Lytic Substrate), shaken for 5 minutes at 600 RPM, then left to sit for 10 minutes for signal to stabilize before reading on a Spark Cyto plate reader (Tecan) with a 500 ms measurement time.
(§4) To determine compound effects on protein abundance of each target in Table 6, the percent response for each respective cell line was calculated at each compound concentration as follows:
(§5) For the normalized response at each concentration, a four-parameter logistical regression was fit to the data and the response was interpolated at the 50% value to determine a concentration for protein abundance at 50% (IC50) the untreated control.

MYB mRNA = assay: Splicing RT-qPCR assay, MYB canonical (CJ) and alternative (AJ) junction mRNA; type: cell-based; details: Homo sapiens; for EC50: AC50 = 50% response in AJ mRNA increase
How it was run: as §1

[1] = test system: K562 (human chronic myelogenous leukemia) cells; assay: Cell viability, Cell Titer Glo 2.0 assay, K562 cells; type: cell-based; details: 72 hours
Protocol: Compounds described herein were screened for toxicity in K562 (human chronic myelogenous leukemia) and SH-SY5Y (human neuroblastoma) cells using a Cell Titer Glo 2.0 assay.
Cells were plated at 500 cells/well (K562 cells) in 45 μL of IMDM supplemented with 10% FBS in a 384-well opaque plate. Wells containing only medium were used as a blank control. Test compounds (e.g., compounds of Formula (I), (III), (IV), (V), or (VI)) were first serially diluted in DMSO then diluted 1:100 with IMDM+10% FBS. The final concentration of DMSO was 0.1% in each well. The cells were incubated for 72 hours at 37° C. and 5% CO2 before assaying with Cell Titer Glo 2.0 reagent.

HiBiT-tagged HTT protein = assay: HiBiT protein abundance assay, HTT (K562 HiBiT knock-in cells); type: cell-based, human; details: 24 hours treatment
Protocol: as §2, §3, §4, §5

SMN2 mRNA = assay: Splicing RT-qPCR gene panel, SMN2 canonical junction (CJ) mRNA; type: cell-based; details: Homo sapiens; Table 8; larger gene panel, decrease in CJ mRNA levels
How it was run: as §1

Target C = assay: HiBiT protein abundance assay, Target C (K562 HiBiT knock-in cells); type: cell-based, human; details: 24 hours treatment
Protocol: • Promega Nano-Glo HiBiT Lytic Detection System (cat #N3030) • Corning 384-well TC-treated microplates (cat #3570) • Synthego Engineered Cells Knock-In Clones
as §3, §4, §5

[2] = Table 7, RT-qPCR, A673 or K562 cells, 24 hours treatment
[3] = Table 7, IC50 = 50% response in CJ mRNA decrease, RT-qPCR, A673 or K562 cells, 24 hours treatment, read-out: HTT CJ
[4] = Table 8, larger gene panel, decrease in CJ mRNA levels, read-out: HTT CJ IC50
[5] = Table 7, IC50 = 50% response in CJ mRNA decrease, RT-qPCR, A673 or K562 cells, 24 hours treatment, read-out: MYB CJ
[6] = Table 8, larger gene panel, decrease in CJ mRNA levels, read-out: MYB CJ IC50

SMILES | EC50 (HTT mRNA; [2]) [µM] | IC50 (HTT mRNA; [3]) [µM] | IC50 (HTT mRNA; [4]) [µM] | IC50 (Target C mRNA) [µM] | IC50 (HiBiT-tagged MYB protein) [µM] | EC50 (MYB mRNA; [2]) [µM] | IC50 (MYB mRNA; [5]) [µM] | IC50 (MYB mRNA; [6]) [µM] | IC50 [1] [µM] | IC50 (HiBiT-tagged HTT protein) [µM] | IC50 (SMN2 mRNA) [µM] | IC50 (Target C) [µM]
Cn1cc2cc(-c3cc4cn(C5CCNCC5)nc4s3)cc(F)c2n1 [Compound 122, 7-fluoro-2-methyl-5-[2-(piperidin-4-yl)thieno[2,3-c]pyrazol-5-yl]indazole] | < 0.1 | < 0.1 | < 0.1 | < 0.1 | < 0.1 | 0.1 to 1 | < 0.1 | 0.1 to 1 | < 0.1 | < 0.1 | < 0.1 | < 0.1
Cn1cc2c(F)cc(-n3cc4cc(C5CCNCC5)sc4n3)cc2n1 [Compound 174] | > 10 | > 10 | > 10 | > 10 | 1 to 10 | > 10 | > 10 | > 10 | 1 to 10 | 1 to 10 | 1 to 10 | > 10
Cc1cn2nc(-c3cc4cn(C5CCNCC5)nc4s3)cc2c(C)n1 [Compound 222] | 1 to 10 | 1 to 10 | 1 to 10 | 1 to 10 | 1 to 10 | 1 to 10 | 1 to 10 | 1 to 10 | 1 to 10 | 0.1 to 1 | < 0.1 | 1 to 10
Cc1cn2cc(-c3nc4cn(C5CCNCC5)nc4s3)nc(C)c2n1 [Compound 1105, 4-(5-{2,8-dimethylimidazo[1,2-a]pyrazin-6-yl}pyrazolo[4,3-d][1,3]thiazol-2-yl)piperidine] | > 10 | > 10 | > 10 | > 10 | 1 to 10 | > 10 | > 10 | > 10 | > 10 | 1 to 10 | 1 to 10 | > 10
Cn1cc2cc(-c3cc4cn(C5=CCOCC5)nc4s3)cc(F)c2n1 [Compound 177] | > 10 | > 10 | > 10 | > 10 | > 10 | > 10 | > 10 | > 10 | > 10 | > 10 | > 10 | > 10
Cc1cn2nc(-n3cc4sc(N5CCC(NC(C)(C)C)C5)cc4n3)cc(C)c2n1 (stereo not drawn) [Compound 189, N-tert-butyl-1-(2-{2,8-dimethylimidazo[1,2-b]pyridazin-6-yl}thieno[3,2-c]pyrazol-5-yl) pyrrolidin-3-amine] | > 10 | > 10 | > 10 | > 10 | > 10 | > 10 | > 10 | > 10 | 1 to 10 | > 10 | 1 to 10 | > 10
Cn1cc2c(F)cc(-n3cc4sc(C5CCNCC5)cc4n3)cc2n1 [Compound 175] | > 10 | > 10 | > 10 | > 10 | 1 to 10 | > 10 | > 10 | > 10 | 1 to 10 | 1 to 10 | > 10 | 1 to 10
Cc1cn2nc(-c3cc4cn([C@H]5CCNC[C@@H]5F)nc4s3)cc(C)c2n1 (mixture of isomers) [Compound 212, 5-(2,8-dimethylimidazo[1,2-b]pyridazin-6-yl)-2-((1:1 mixture of 3S,4S and 3R,4R)-3-fluoropiperidin-4-yl)-2H-thieno[2,3-c]pyrazole] | 1 to 10 | 1 to 10 | 1 to 10 | > 10 | > 10 | > 10 | 1 to 10 | > 10 | 1 to 10 | 1 to 10 | 0.1 to 1 | > 10
Cn1cc2cc(-c3cc4cn(C5CCNCC5)nc4s3)c(C#N)cc2n1 [Compound 211] | 1 to 10 | 1 to 10 | 1 to 10 | 1 to 10 | 1 to 10 | 1 to 10 | 1 to 10 | 1 to 10 | 1 to 10 | 0.1 to 1 | 0.1 to 1 | 1 to 10
Cn1cc2cc(-c3nc4cn(C5CCNCC5)nc4s3)c(O)c(F)c2n1 [Compound 1107] | 0.1 to 1 | 0.1 to 1 | 0.1 to 1 | 0.1 to 1 | 1 to 10 | 0.1 to 1 | 0.1 to 1 | 0.1 to 1 | 1 to 10 | 0.1 to 1 | < 0.1 | 0.1 to 1
COc1c(-c2nc3cn(C4CCNCC4)nc3s2)cc2cn(C)nc2c1C [Compound 1103] | 1 to 10 | 1 to 10 | 1 to 10 | 1 to 10 | 1 to 10 | 1 to 10 | 1 to 10 | 1 to 10 | 1 to 10 | 1 to 10 | 1 to 10 | 1 to 10
Cn1cc2cc(-c3cc4cn([C@H]5CCNC[C@@H]5F)nc4s3)cc(F)c2n1 [Compound 190] | 0.1 to 1 | < 0.1 | 0.1 to 1 | 0.1 to 1 | 1 to 10 | 0.1 to 1 | 0.1 to 1 | 0.1 to 1 | 1 to 10 | 0.1 to 1 | < 0.1 | 1 to 10
Cc1cn2nc(-n3cc4sc(C5CCNCC5)cc4n3)cc2c(C)n1 [Compound 171] | 0.1 to 1 | 0.1 to 1 | 0.1 to 1 | 1 to 10 | 0.1 to 1 | 1 to 10 | 1 to 10 | 1 to 10 | 1 to 10 | 0.1 to 1 | 0.1 to 1 | 0.1 to 1
Cc1cn2nc(-n3cc4cc(C5CCNCC5)sc4n3)nc2c(C)n1 [Compound 163, 4-(2-{6,8-dimethyl-[1,2,4]triazolo [1,5-a]pyrazin-2-yl}thieno[2,3-c]pyrazol-5-yl)piperidine] | 1 to 10 | 1 to 10 | 1 to 10 | 1 to 10 | 1 to 10 | 1 to 10 | 1 to 10 | 1 to 10 | 1 to 10 | 1 to 10 | 1 to 10 | 1 to 10
Cn1cc2cc(-c3cc4cn([C@@H]5CCNC[C@@H]5F)nc4s3)cc(F)c2n1 [Compound 183] | 1 to 10 | 0.1 to 1 | 1 to 10 | 1 to 10 | 0.1 to 1 | 1 to 10 | 1 to 10 | 1 to 10 | 0.1 to 1 | < 0.1 | 0.1 to 1 | < 0.1
